Assay results from US12544426B2, “Combination therapy with CD13-targeted chimeric proteins or chimeric protein complexes” (Orionis Biosciences, Inc., priority 2019, dated 2026).

How the values were obtained:
[1] = test system: B16BI6 tumor; assay: B16BI6 melanoma model, tumor growth; format: in vivo, mouse; details: Example 5, alone or combined with birinapant
Source text: FIG. 2A is a graph showing the change in B16BI6 tumor size in B16 mice treated with PBS, CD8-targeted chimeric protein (CD8-Actaferon) alone, BcII10 targeted mutated murine TNF (Y114L) alone, or CD8-targeted chimeric protein (CD8-Actaferon) and BcII10 targeted mutated murine TNF (Y114L). FIG. 2B is a graph showing the change in B16BI6 tumor size in B16 mice treated with PBS, CD8-targeted chimeric protein (CD8-Actaferon) alone, CD13 targeted mutated murine TNF (Y114L) alone, or CD8-targeted chimeric protein (CD8-Actaferon) and CD13 targeted mutated murine TNF (Y114L). […] Tumor growth is shown as mean TSI+SEM (n=6 per group). The line under the graph represents the treatment period. […] Error bars are SEM. ***, p<0.001 by one-way ANOVA with Bonferroni's multiple comparison test. […]
FIG. 7A: Toxicity of wt sc mTNF and mutant Y86F after injection (T) in naïve C56BU6 mice. […] FIG. 7B: Plasma IL-6 concentrations measured via ELISA. […]
FIG. 8A and 8B: B16BI6 tumor growth after daily p.1. treatment with 7 μg mTNF, 30 μg hTNF alone or in combination with 10000 IU mIFN-γ in wt C57BL/6 mice (a) or homozygous Flk1 dnIFN-γR transgenic mice. […] FIG. 8C: IL-8 concentration in HUVEC supernatant after 24 h stimulation with the indicated concentration of sc hTNF mutant Y87F (Y87F), hCD13-AFR or wt hTNF, alone or in combination with 200 ng/ml hIFN-γ, measured via ELISA. […]

[2] = test system: HUVEC; assay: IL-8 secretion by HUVECs (ELISA of supernatant); format: cell-based, human; details: 24 h stimulation, 200 ng/ml hIFN-γ where used
Method: FIG. 8A and 8B: B16BI6 tumor growth after daily p.1. treatment with 7 μg mTNF, 30 μg hTNF alone or in combination with 10000 IU mIFN-γ in wt C57BL/6 mice (a) or homozygous Flk1 dnIFN-γR transgenic mice. The line under the graph represents the treatment period. Tumor growth is depicted as mean TSI, error bars are SEM (n=5 per group). FIG. 8C: IL-8 concentration in HUVEC supernatant after 24 h stimulation with the indicated concentration of sc hTNF mutant Y87F (Y87F), hCD13-AFR or wt hTNF, alone or in combination with 200 ng/ml hIFN-γ, measured via ELISA. Error bars are SEM. ns, non-significant; p<0.01; ***, p<0.001 by one-way ANOVA with Bonferroni's multiple comparison test. FIG. 8D: Schematic representation of AFN-II, consisting of a VHH fused via a 20×GGS linker to an engineered IFN-γ (e-IFN-γ) variant and N-terminal affinity tag. FIG. 8E: Viability of B16BI6 parental or mCD20-expressing cells after 72 h stimulation with wt mIFN-γ or de18 mutant fused to a BcII10 or mCD20 VHH, in the presence of 60 ng/ml mTNF. Cell viability was measured via an ATP luminescence assay. Each point is the mean of three replicates and error bars are SEM.
It was also tested whether IFN-γ could sensitize HUVECs to TNF, using either wtTNF or hCD13-AFR.

## CC[C@H](NC(=O)[C@H](C)NC)C(=O)N1C[C@@H](O)C[C@H]1Cc1c(-c2[nH]c3cc(F)ccc3c2C[C@@H]2C[C@H](O)CN2C(=O)[C@H](CC)NC(=O)[C@H](C)NC)[nH]c2cc(F)ccc12 [birinapant]
[1]
  Tumor growth (FIG. 5A): very little effect on tumor growth

B1: IFN-γ: human IFN-γ used on HUVECs, 200 ng/ml (protein)
chain: QDPYVKEAENLKKYFNAGHSDVADNGTLFLGILKNWKEESDRKIMQSQIVSFYFKLFKNFKDDQSIQKSVETIKEDMNVKFFNSNKKKRDDFEKLTNYSVTDLNVQRKAIHELIQVMAELSPAAKTGKRKRSQMLFRGRRASQ
[2]
  IL-8 secretion by HUVECs: no effect on IL-8 secretion
